Measured values as given in US20040019092A1, “Non-peptide somatostatin receptor ligands” (priority 2001, published 2004).
Several values for one entry are separate records, joined by “and”; a condition that tells them apart may be missing. Equal entries are not always repeated.

Legend:
[1] = molecular target: T1, human sst2 receptor sub-type (Homo sapiens, UniProt P30874); assay: In vitro binding, human sst2 receptor sub-type (SSTR2); details: Tables 8/9: Bind SSTR2 nM
T1 construct: host or cells: SRIF receptor expressing cell cultures (general statement only)
T1 sequence (P30874 whole entry): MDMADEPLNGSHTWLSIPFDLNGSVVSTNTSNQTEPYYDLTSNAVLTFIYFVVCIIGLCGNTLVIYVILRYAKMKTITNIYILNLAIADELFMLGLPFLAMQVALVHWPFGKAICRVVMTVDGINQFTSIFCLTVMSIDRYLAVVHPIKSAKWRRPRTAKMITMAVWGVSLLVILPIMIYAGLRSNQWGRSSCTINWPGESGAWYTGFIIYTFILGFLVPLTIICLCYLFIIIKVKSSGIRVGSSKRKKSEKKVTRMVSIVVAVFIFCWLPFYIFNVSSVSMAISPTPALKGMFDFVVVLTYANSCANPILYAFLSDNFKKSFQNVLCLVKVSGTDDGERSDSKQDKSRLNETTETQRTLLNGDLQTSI
Method: The in vitro binding affinities for rat cortex SRIF receptors and the human sst2 receptor sub-type was assessed. Further the in vitro inhibition of the GHRH induced GH secretion in primary cultures of rat pituitary cells as well as the in vivo inhibition of GH secretion in the rat after systemic or enteral application was studied. […] Therefore, the in vivo activities of the compounds in rats with respect to inhibition of growth hormone release was also assessed. Most compounds selected were tested by enteral—intraduodenal (i.d.) application. For determination of the absolute activity and for the calculation of an enteral bioavailability, single subcutaneous (s.c.) application of intravenous (i.v.) infusion was used.

[2] = test system: GHRH induced GH secretion in primary cultures of rat pituitary cells; assay: In vitro inhibition of GHRH induced GH secretion (GH vitro +GHRH); assay type: cell-based
[3] = test system: GH secretion; assay: GH secretion in vivo, rat, subcutaneous application, 1 h (basal); details: for GH vivo s.c. 1 h ID50: rat, basal GH secretion, 1 h after subcutaneous application
Method: (§1) Animals, anesthesia: Male rats of a Sprague Dawley strain (Ico:OFA-SD, Iffa-Credo, F-Lyon) of 200-300 g body weight were used. They were kept under standardized conditions and were anesthetized with pentobarbital-sodium (Siegfried, CH Zofingen), 60 mg/kg i.p. for subcutaneous and intraduodenal applications. Animals designed for an infusion experiment were anesthetized with urethane (Siegfried, CH Zofingen), 1.2 g/kg i.p.
(§2) Compounds: The compounds were dissolved, optionally with the aid of one or more of the following adjuncts:
(§3) Stock solutions of the compounds were prepared in water with the addition of the necessary adjunct(s). Further dilutions were prepared allowing 5 mL/kg for subcutaneous application, 2 mL for intraduodenal (i.d.) application or 4.5 mL/kg for intravenous infusion. The solutions for the intravenous application/infusion were made isotonic by addition of glucose to a final concentration of 5%.
(§4) Applications were made, or, in the case of infusion, started, approximately 10 minutes after induction of anesthesia. No further treatment followed subcutaneous or intraduodenal application. Ten, twenty-five and fifty-five minutes after start of the intravenous infusion the GH secretion was stimulated with repeated intravenous injections of the potent GHRH analog, D-Ala2 GHRH1-29NH2, 1 μg/kg.
(§5) One hour after subcutaneous or intraduodenal application of the compounds, blood was collected from the trunk after decapitation. In the case of application by infusion, 5 minutes after each application of GHRH, a blood sample of 0.8 mL was taken from a V. jugularis and mixed with EDTA (Eppendorf tubes TOM14, Milian, CH Geneva). The blood samples were kept on ice and spun in a cooled centrifuge. The serum or plasma was separated and frozen.
(§6) Statistics: In each experiment, 4-5 animals were used per dose, with 6 to 8 animals as the control group that received the vehicle. The GH serum/plasma levels were averaged, the mean of the treated groups expressed in percent of the control group and the ID50-value for the inhibition of the secretion was determined graphically (log-probit) for each experiment. In most experiments with enteral (intraduodenal) application only 1 dose, 10 mg/kg, was given. […] Only inhibitions between 20 and 80% were considered reliable.
(§7) Two to four experiments were performed. In the case of proper dose response curves, allowing the determination of an ID50 values were averaged logarithmically. In the cases of single dose-experiments, the GH value in percent of control were averaged logarithmically and the ID50 for this value was taken from the table. ID50 values determined at the different time points during the infusion were averaged and this value was included in the tables.

[4] = test system: GH secretion; assay: GH secretion in vivo, rat, intraduodenal (enteral) application, 1 h (basal); details: for GH vivo i.d. 1 h ID50: basal GH secretion, 1 h after intraduodenal application, mostly approximate ID50 from single 10 mg/kg dose, Ø = no effect at this dose, > = extrapolated value; for enteral ID50 (GH secretion): enteral (intraduodenal) application
Method: as §1, §2, §3, §4, §5, §6, §7

[5] = test system: GHRH stimulated GH secretion; assay: GH secretion in vivo, rat, intravenous infusion with repeated GHRH stimulation; details: for INFUS. + GHRH ID50 MEAN: Table 4, mean of infusion time points; for INFUS. + GHRH ID50 15′ / INFUS. + GHRH ID50 30′ / INFUS. + GHRH ID50 60′: Table 4, urethan; for INFUS. + GHRH ID50 15′ / GH, Ur Inf15′ +GHRH: 15′ of infusion; for INFUS. + GHRH ID50 30′ / GH, UR Inf30′ +GHRH: 30′ of infusion; for INFUS. + GHRH ID50 60′ / GH, UR Inf60′ +GHRH: 60′ of infusion; for GH, Ur Inf15′ +GHRH / GH, UR Inf30′ +GHRH / GH, UR Inf60′ +GHRH: Tables 8/9, urethane; for GH vivo Inf + GHRH ID50 (mean of time points): urethane, i.v. infusion, GHRH stimulated
Method: as §1, §3, §4, §5, §6, §7

[6] = test system: prolactin secretion; assay: Unanesthetized estradiol primed male rats, oral by gavage: prolactin; assay type: in vivo, rat; details: estradiol implant male rats, oral by gavage, 1 hour; ø = no effect at this dose
Excerpt: Table 5 summarizes the results obtained in the estradiol primed male rats that received the compounds orally by gavage. These rats have stabilized elevated GH plasma levels as well as increased prolactin levels. In contrast to normal untreated rats, who's prolactin secretion is not sensitive to the inhibitory effect of somatostain, in these rats the prolactin secretion is inhibited to a similar degree as the GH secretion. Therefore, the inhibitory effect can be measured on 2 different parameters, GH and prolactin. The mean enteral absorption and activity of the respective compounds are shown.

[7] = molecular target: SS1 (Rattus norvegicus, UniProt P30680); assay: SS-1 binding (Bind SS1 D.H.)
Sequence of SS1 (P30680 whole entry): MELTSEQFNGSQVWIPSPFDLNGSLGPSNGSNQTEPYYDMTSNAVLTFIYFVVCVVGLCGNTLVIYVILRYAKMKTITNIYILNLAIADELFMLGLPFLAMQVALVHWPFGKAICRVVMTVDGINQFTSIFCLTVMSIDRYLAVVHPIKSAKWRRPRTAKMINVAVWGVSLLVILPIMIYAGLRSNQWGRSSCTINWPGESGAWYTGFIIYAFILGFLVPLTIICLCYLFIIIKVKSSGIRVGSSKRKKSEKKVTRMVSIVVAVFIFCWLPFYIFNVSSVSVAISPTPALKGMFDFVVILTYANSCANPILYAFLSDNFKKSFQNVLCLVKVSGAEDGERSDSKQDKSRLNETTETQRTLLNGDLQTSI

[8] = molecular target: T2, SSTR1 (Homo sapiens, UniProt P30872); assay: Binding SSTR1; details: > = extrapolated value; read-out: Bind SSTR1
T2 construct: host or cells: SRIF receptor expressing cell cultures (general statement only)
T2 sequence (P30872 whole entry, species assumed): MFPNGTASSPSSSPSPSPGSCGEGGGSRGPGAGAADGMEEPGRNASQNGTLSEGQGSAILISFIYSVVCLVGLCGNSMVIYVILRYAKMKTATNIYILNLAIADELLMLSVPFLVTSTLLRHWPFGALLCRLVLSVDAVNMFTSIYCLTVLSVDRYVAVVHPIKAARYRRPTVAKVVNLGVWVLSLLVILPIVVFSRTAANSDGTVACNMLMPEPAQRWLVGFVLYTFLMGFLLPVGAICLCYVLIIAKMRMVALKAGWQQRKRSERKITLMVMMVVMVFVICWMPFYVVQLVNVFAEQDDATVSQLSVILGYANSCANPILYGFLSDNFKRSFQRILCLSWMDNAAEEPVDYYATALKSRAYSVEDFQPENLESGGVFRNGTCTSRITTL

[9] = molecular target: T3, SSTR3 (Homo sapiens, UniProt P32745); assay: Binding SSTR3; details: > = extrapolated value; read-out: Bind SSTR3
T3 construct: host or cells: SRIF receptor expressing cell cultures (general statement only)
T3 sequence (P32745 whole entry, species assumed): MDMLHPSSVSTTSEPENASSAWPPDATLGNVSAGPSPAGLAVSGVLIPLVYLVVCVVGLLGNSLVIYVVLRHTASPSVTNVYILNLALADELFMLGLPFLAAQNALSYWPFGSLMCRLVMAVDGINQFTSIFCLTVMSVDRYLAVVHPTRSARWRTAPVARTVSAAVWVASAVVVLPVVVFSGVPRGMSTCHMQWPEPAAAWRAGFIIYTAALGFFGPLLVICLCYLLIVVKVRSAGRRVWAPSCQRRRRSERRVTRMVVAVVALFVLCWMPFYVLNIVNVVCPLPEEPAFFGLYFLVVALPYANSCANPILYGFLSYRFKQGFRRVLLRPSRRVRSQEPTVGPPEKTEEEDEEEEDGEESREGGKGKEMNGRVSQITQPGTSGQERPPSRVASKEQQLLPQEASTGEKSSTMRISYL

[10] = molecular target: T4, SSTR4 (Homo sapiens, UniProt P31391); assay: Binding SSTR4; details: > = extrapolated value; read-out: Bind SSTR4
T4 construct: host or cells: SRIF receptor expressing cell cultures (general statement only)
T4 sequence (P31391 whole entry, species assumed): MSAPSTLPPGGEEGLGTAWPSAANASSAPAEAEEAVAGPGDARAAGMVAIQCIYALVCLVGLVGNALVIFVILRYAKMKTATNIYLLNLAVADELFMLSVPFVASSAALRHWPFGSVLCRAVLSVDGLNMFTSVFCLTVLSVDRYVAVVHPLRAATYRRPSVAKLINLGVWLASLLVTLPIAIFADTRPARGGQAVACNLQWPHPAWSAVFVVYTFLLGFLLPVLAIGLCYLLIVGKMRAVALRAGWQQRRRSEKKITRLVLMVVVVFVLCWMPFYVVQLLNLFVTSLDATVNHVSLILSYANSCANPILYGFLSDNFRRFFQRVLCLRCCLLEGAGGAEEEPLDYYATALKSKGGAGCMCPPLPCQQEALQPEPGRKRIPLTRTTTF

[11] = molecular target: T5, SSTR5 (Homo sapiens, UniProt P35346); assay: Binding SSTR5; details: read-out: Bind SSTR5
T5 construct: host or cells: SRIF receptor expressing cell cultures (general statement only)
T5 sequence (P35346 whole entry, species assumed): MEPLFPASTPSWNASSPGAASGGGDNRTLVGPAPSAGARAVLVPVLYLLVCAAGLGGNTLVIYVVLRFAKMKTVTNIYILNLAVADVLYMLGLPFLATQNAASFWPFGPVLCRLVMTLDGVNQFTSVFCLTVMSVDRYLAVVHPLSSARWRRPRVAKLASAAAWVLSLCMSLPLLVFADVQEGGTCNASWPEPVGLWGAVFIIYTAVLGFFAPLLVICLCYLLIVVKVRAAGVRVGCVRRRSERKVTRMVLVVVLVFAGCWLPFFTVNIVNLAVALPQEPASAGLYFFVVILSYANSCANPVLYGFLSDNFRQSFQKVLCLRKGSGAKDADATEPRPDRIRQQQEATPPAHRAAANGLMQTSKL

SMILES | IC50 [1] [nM] | IC50 [2] [nM] | GH vivo s.c. 1 h ID50 [3] [µg/kg] | GH vivo i.d. 1 h ID50 [4] | enteral ID50 (GH secretion) [4] [mg/kg] | INFUS. + GHRH ID50 MEAN [5] [µg/kg] | INFUS. + GHRH ID50 15′ [5] [µg/kg] | INFUS. + GHRH ID50 30′ [5] [µg/kg] | INFUS. + GHRH ID50 60′ [5] [µg/kg] | GH, Ur Inf15′ +GHRH [5] | GH, UR Inf30′ +GHRH [5] [µg/kg/h] | GH, UR Inf60′ +GHRH [5] [µg/kg/h] | PROLACT 1 H ID50 [6] | Bind SS1 D.H. [7] [nM] | IC50 [8] [nM] | IC50 [9] [nM] | IC50 [10] [nM] | IC50 [11] [nM] | GH vivo Inf + GHRH ID50 (mean of time points) [5] [µg/kg/h] | also measured
Cc1cccc2c(CC3C(=O)N(CCCCCN)C(=O)N3S(=O)(=O)c3ccc(Oc4ccc(O)cc4)c(CN)c3)c[nH]c12 (stereo not drawn) [Compound 45] | 3 | 5.1 | 48 | 11.4 mg/kg | 11.4 | 31.05 | 34.00 | 30.00 | 31.00 | 34.000 µg/kg/h | 30.000 | 30.000 | 16 mg/kg | 1.00 | 1400 | 220 | > 1000 | 97 | – | GH vivo s.c. 1 h ID50 ([3]; listed as 45 ch): 48.00 µg/kg; GH vivo s.c. 1 h ID50 ([3]; listed as 45 dch): 48.00 µg/kg; enteral bioavailability (from ID50 ratio) ([4]; intraduodenal 1 hour vs parenteral ID50): =0/42%; GH vivo Inf + GHRH ID50 (mean of time points) ([5]; listed as 45 ch): 30.000 µg/kg/h; GH vivo Inf + GHRH ID50 (mean of time points) ([5]; listed as 45 dch): 31.05 µg/kg/h and 30.000 µg/kg/h
Cc1cccc2c(CC3C(=O)N(CCCCCN)C(=O)N3S(=O)(=O)c3ccc(Oc4ccc(O)cc4)c(C#N)c3)c[nH]c12 (stereo not drawn) [Compound 14] | 5.7 | 11 | 1160.00 | >30 mg/kg | – | – | – | – | – | ˜44 μg/kg/h | 11.000 | 14.000 | – | 2.50 | > 1000 | 300 | > 1000 | 450 | 19.000 | EC50 for inhibition of GH release, subcutaneous ([3]; applied subcutaneous): ~1 mg/kg; SS-1 binding pKd [7]: 8.56
N#Cc1cc(S(=O)(=O)N2C(=O)N(CCCCCN)C(=O)C2Cc2c[nH]c3ccccc23)ccc1Oc1ccc(N)cc1 (stereo not drawn) [Compound 42] | 44 | 255 | – | Ø10000 μg/kg | – | – | – | – | – | 856.000 µg/kg/h | 434.000 | 425.000 | – | – | 50000 | 2800 | 5300 | 1400 | 540.000 | –
Cc1cccc2c(CC3C(=O)N(CCCCCN)C(=O)N3S(=O)(=O)c3ccc(Oc4ccc(O)c(Cl)c4)c(C#N)c3)c[nH]c12 (stereo not drawn) [Compound 44] | 2.7 | 1.7 | 258 | 9.721 mg/kg | 9.7 | 43.20 | 72.40 | 41.00 | 27.10 | 50 µg/kg/h | 30 | 21 | ø10000 μg/kg | 1.00 | > 1000 | > 1000 | > 1000 | 170 | – | GH vivo s.c. 1 h ID50 ([3]; listed as 44 ch): 258.00 µg/kg; GH vivo Inf + GHRH ID50 (mean of time points) ([5]; listed as 44 ch): 43.00 µg/kg/h and 32 µg/kg/h
